{
  "source": "patent US7414107B2",
  "about": "“Pharmacologically active peptide conjugates having a reduced tendency towards enzymatic hydrolysis” (priority 1998, dated 2008)",
  "key": {"[1]": {"tested_on": "PTH (1-34)-antibody", "conditions": "EIAS(h)-6101 from Peninsula Laboratories; cited from earlier work"}, "[2]": {"biological_target": "T1, leucine aminopeptidase (Sus scrofa, UniProt P28839)", "T1 construct": "purchased Sigma, UK type III-CP (catalogue number not given); host or cells: porcine kidney", "T1 sequence (P28839 1-519)": "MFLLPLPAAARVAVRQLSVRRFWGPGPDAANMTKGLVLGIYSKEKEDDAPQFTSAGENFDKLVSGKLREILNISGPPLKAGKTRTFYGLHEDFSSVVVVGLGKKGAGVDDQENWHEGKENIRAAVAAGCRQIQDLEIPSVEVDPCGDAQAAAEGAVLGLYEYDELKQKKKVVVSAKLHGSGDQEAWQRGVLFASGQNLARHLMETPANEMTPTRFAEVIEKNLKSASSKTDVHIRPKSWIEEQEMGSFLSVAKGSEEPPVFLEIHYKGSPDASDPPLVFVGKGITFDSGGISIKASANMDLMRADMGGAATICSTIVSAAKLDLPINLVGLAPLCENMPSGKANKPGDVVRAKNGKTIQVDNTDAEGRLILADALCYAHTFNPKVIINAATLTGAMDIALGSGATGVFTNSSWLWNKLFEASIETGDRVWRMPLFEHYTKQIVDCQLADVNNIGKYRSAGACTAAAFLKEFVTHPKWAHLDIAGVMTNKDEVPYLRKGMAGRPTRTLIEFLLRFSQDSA", "assay": "Hydrolysis kinetics in leucine aminopeptidase solution", "type": "in vitro ADME, porcine", "conditions": "50 mM phosphate buffer pH 7.4, 37° C., leucine aminopeptidase 25 U/ml; for half-life: pig", "method": "(§1) Carboxypeptidase A (EC 3.4.17.1) type I from bovine pancreas, leucine aminopeptidase (EC 3.4.11.1) type III-CP from porcine kidney, α-chymotrypsin (EC […]) from bovine pancreas, and pepsin A (EC 3.4.23.1) from porcine stomach mucosa […] were obtained from Sigma, UK.\n(§2) Gradient HPLC analysis of samples from in vitro kinetic measurements performed as described below was performed using a Hewlett Packard HP 1100 HPLC system consisting of a HP 1100 Binary Pump, a HPI 100 Autosampler, a HPI 100 Column Thermostat and a HP 1100 Variable Wavelength Detector. A Merck LiChroCART column (125×4 mm I.D.) and a LiChroCART precolumn (4×4 mm I.D.) packed with Lichrospher RP-18 (5 .μum particles) was used. The column was kept at 25° C. or 75° C. and the column effluent was measured by UV detection at 215 run. Separation of the peptide conjugates or the native peptides from degradation products and constituents of the reaction solutions was accomplished using gradient elution of the column with mixtures of mobile phase A (0.1 vol % TFA in water) and mobile phase B (0.085 vol % TFA in acetonitrile) at a flow rate of 1 ml/min.\n(§3) The degradation of the peptide conjugate and the corresponding native peptide were studied at 37° C. in a 50 mM phosphate buffer solution at pH 7.4 containing leucine arninopeptidase (25 U/ml) or carboxypeptidase A (1 or 25 U/ml). Experiments were initiated by addition of an aliquot (100 μl) of a stock solution (1 mg/ml) of the peptide conjugate or the native peptide to 900 μl preheated enzyme solution giving a final concentration of ˜0.1 mg/ml (10^−5-10^−4M) of the peptide conjugate or the native peptide. The peptide/enzyme solution was kept at 37° C. using a SHT200D block heater from Stuart Scientific. At appropriate time intervals, samples of 100 μl were withdrawn from the peptide/enzyme solution, mixed thoroughly with 20 μl 25% TFA in acetonitrile in order to stop the enzymatic degradation process and analysed by HPLC as described above. Half-lives (t1/2) for the peptide conjugate and the corresponding native peptide in the enzyme solutions were calculated from plots of the natural logarithm to the concentration of the residual peptide (HPLC peak heights) against time using the formula t/2=1/kobs×ln(2), where kobs is the apparent first-order rate constant for the observed degradation."}, "[3]": {"tested_on": "osteoblast", "assay": "Osteoblast retraction assay", "type": "cell-based, mice", "conditions": "for Retraction assay % Retracted cells: 10 nM, 1 h, mouse calvaria osteoblasts; for activity relative to the mother compound hPTH(1-34): Osteoblast retraction assay", "method": "Retraction assays were performed with osteoblast prepared from calvaria of 1-day old mice according to published protocols (Miller et al., 1976, Science 192:1340-1343). In brief, osteoblasts were seeded in serum-free minimal essential medium-α (αMEM) at a density of 3000 cells per cm^2 into 96-well tissue culture plates coated with 50 μg/ml of type I collagen in phosphate-buffered saline containing 0.1% bovine serum albumin (PBS). One day after plating, PTH compounds were added to a final concentration of 10 nM and incubation was carried out for 1 h. Cells were then fixed and stained with toluidine blue, and the number of retracted cells was counted by visual inspection."}, "[4]": {"biological_target": "T2, carboxypeptidase A (Bos taurus, UniProt P00730)", "T2 construct": "purchased Sigma, UK type I (catalogue number not given); host or cells: bovine pancreas", "T2 sequence (P00730 111-419)": "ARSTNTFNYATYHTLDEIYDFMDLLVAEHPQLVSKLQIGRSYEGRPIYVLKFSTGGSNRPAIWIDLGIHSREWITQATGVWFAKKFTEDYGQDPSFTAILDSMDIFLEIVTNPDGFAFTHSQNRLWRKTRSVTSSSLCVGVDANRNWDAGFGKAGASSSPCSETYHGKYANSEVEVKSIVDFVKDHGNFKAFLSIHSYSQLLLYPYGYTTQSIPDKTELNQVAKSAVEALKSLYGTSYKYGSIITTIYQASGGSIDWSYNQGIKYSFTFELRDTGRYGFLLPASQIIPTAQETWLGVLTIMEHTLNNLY", "assay": "Hydrolysis kinetics in carboxypeptidase A solution", "type": "in vitro ADME, bovine", "conditions": "50 mM phosphate buffer pH 7.4, 37° C., carboxypeptidase A 1 U/ml", "method": "as §1, §2, §3"}},
  "data": [
    {"molecule": "hPTH(1-44): human PTH fragment listed in the EIA kit specificity (SVSEIQLMHNLGKHLNSMERVEWLRKKLQDVHNFVALGAPLAPR; Parathyroid hormone; UniProt P01270 32-75, looked up, fragment)", "values": [
      {"measurement": "Specificity of the assay", "setting": "[1]", "result": 0, "unit": "%"}
    ]},
    {"molecule": "CC[C@H](C)[C@H](NC(=O)[C@H](CCC(=O)O)NC(=O)[C@H](CO)NC(=O)[C@@H](NC(=O)[C@H](CO)NC(=O)[C@H](CCCCN)NC(=O)[C@H](CCCCN)NC(=O)[C@H](CCCCN)NC(=O)[C@H](CCCCN)NC(=O)[C@H](CCCCN)NC(=O)[C@@H](N)CCCCN)C(C)C)C(=O)N[C@@H](CCC(N)=O)C(=O)N[C@@H](CC(C)C)C(=O)N[C@@H](CCSC)C(=O)N[C@@H](Cc1c[nH]cn1)C(=O)N[C@@H](CC(N)=O)C(=O)N[C@@H](CC(C)C)C(=O)NCC(=O)N[C@@H](CCCCN)C(=O)N[C@@H](Cc1c[nH]cn1)C(=O)N[C@@H](CC(C)C)C(=O)N[C@@H](CC(N)=O)C(=O)N[C@@H](CO)C(=O)N[C@@H](CCSC)C(=O)N[C@@H](CCC(=O)O)C(=O)N[C@@H](CCCNC(=N)N)C(=O)N[C@H](C(=O)N[C@@H](CCC(=O)O)C(=O)N[C@@H](Cc1c[nH]c2ccccc12)C(=O)N[C@@H](CC(C)C)C(=O)N[C@@H](CCCNC(=N)N)C(=O)N[C@@H](CCCCN)C(=O)N[C@@H](CCCCN)C(=O)N[C@@H](CC(C)C)C(=O)N[C@@H](CCC(N)=O)C(=O)N[C@@H](CC(=O)O)C(=O)N[C@H](C(=O)N[C@@H](Cc1c[nH]cn1)C(=O)N[C@@H](CC(N)=O)C(=O)N[C@@H](Cc1ccccc1)C(=O)O)C(C)C)C(C)C", "note": "[(Lys)6-PTH(1-34)(Human)-OH, H-(Lys)6-(-Ser-Val-Ser-Glu-Ile-Gln-Leu-Met-His-Asn-Leu -Gly-Lys-His-Leu-Asn-Ser-Met-Glu-Arg-Val-Glu-Trp-Leu-Arg-Lys-Lys-Leu-Gln -Asp-Val-His-Asn-Phe-OH]", "values": [
      {"measurement": "pseudo first-order rate constant for the degradation", "setting": "[2]", "result": 0.0035, "unit": "min⁻¹"},
      {"measurement": "half-life", "setting": "[2]", "result": 3.3, "unit": "h"},
      {"measurement": "Retraction assay % Retracted cells", "setting": "[3]", "result": 34.7, "unit": "%"},
      {"measurement": "activity relative to the mother compound hPTH(1-34)", "setting": "[3]", "result": 49, "unit": "%"}
    ]},
    {"molecule": "ratPTH(1-34): rat PTH fragment listed in the EIA kit specificity (AVSEIQLMHNLGKHLASVERMQWLRKKLQDVHNF; Parathyroid hormone; UniProt P04089 32-65, looked up, fragment)", "values": [
      {"measurement": "Specificity of the assay", "setting": "[1]", "result": 0, "unit": "%"}
    ]},
    {"molecule": "CC[C@H](C)[C@H](NC(=O)[C@H](CCC(=O)O)NC(=O)[C@H](CO)NC(=O)[C@@H](NC(=O)[C@@H](N)CO)C(C)C)C(=O)N[C@@H](CCC(N)=O)C(=O)N[C@@H](CC(C)C)C(=O)N[C@@H](CCSC)C(=O)N[C@@H](Cc1c[nH]cn1)C(=O)N[C@@H](CC(N)=O)C(=O)N[C@@H](CC(C)C)C(=O)NCC(=O)N[C@@H](CCCCN)C(=O)N[C@@H](Cc1c[nH]cn1)C(=O)N[C@@H](CC(C)C)C(=O)N[C@@H](CC(N)=O)C(=O)N[C@@H](CO)C(=O)N[C@@H](CCSC)C(=O)N[C@@H](CCC(=O)O)C(=O)N[C@@H](CCCNC(=N)N)C(=O)N[C@H](C(=O)N[C@@H](CCC(=O)O)C(=O)N[C@@H](Cc1c[nH]c2ccccc12)C(=O)N[C@@H](CC(C)C)C(=O)N[C@@H](CCCNC(=N)N)C(=O)N[C@@H](CCCCN)C(=O)N[C@@H](CCCCN)C(=O)N[C@@H](CC(C)C)C(=O)N[C@@H](CCC(N)=O)C(=O)N[C@@H](CC(=O)O)C(=O)N[C@H](C(=O)N[C@@H](Cc1c[nH]cn1)C(=O)N[C@@H](CC(N)=O)C(=O)N[C@@H](Cc1ccccc1)C(=O)N[C@@H](CCCCN)C(=O)N[C@@H](CCCCN)C(=O)N[C@@H](CCCCN)C(=O)N[C@@H](CCCCN)C(=O)N[C@@H](CCCCN)C(=O)N[C@@H](CCCCN)C(=O)O)C(C)C)C(C)C", "note": "[PTH(1-34)(Human)-(Lys)6-OH, H-Ser-Val-Ser-Glu-Ile-Gln-Leu-Met-His-Asn-Leu-Gly-Lys -His-Leu-Asn-Ser-Met-Glu-Arg-Val-Glu-Trp-Leu-Arg-Lys-Lys-Leu-Gln-Asp-Val -His-Asn-Phe-Lys6-OH]", "values": [
      {"measurement": "half-life", "setting": "[4]", "result": 0.783, "unit": "h"},
      {"measurement": "pseudo first-order rate constant for the degradation", "setting": "[4]", "result": 0.015, "unit": "min⁻¹"},
      {"measurement": "pseudo first-order rate constant for the degradation", "setting": "[2]", "result": 0.0012, "unit": "min⁻¹"},
      {"measurement": "half-life", "setting": "[2]", "result": 9.63, "unit": "h"},
      {"measurement": "Retraction assay % Retracted cells", "setting": "[3]", "result": 37.4, "unit": "%"},
      {"measurement": "activity relative to the mother compound hPTH(1-34)", "setting": "[3]", "result": 55, "unit": "%"}
    ]},
    {"molecule": "hPTH(39-68): human PTH fragment listed in the EIA kit specificity (APLAPRDAGSQRPRKKEDNVLVESHEKSLG; Parathyroid hormone; UniProt P01270 70-99, looked up, fragment)", "values": [
      {"measurement": "Specificity of the assay", "setting": "[1]", "result": 0, "unit": "%"}
    ]},
    {"molecule": "hPTH(1-38): human PTH fragment listed in the EIA kit specificity (SVSEIQLMHNLGKHLNSMERVEWLRKKLQDVHNFVALG; Parathyroid hormone; UniProt P01270 32-69, looked up, fragment)", "values": [
      {"measurement": "Specificity of the assay", "setting": "[1]", "result": 100, "unit": "%"}
    ]},
    {"molecule": "Parathyroid Hormone: native, human parathyroid hormone (protein, UniProt P01270 32-115, looked up, Parathyroid hormone) Parathyroid hormone: SVSEIQLMHNLGKHLNSMERVEWLRKKLQDVHNFVALGAPLAPRDAGSQRPRKKEDNVLVESHEKSLGEADKADVNVLTKAKSQ", "values": [
      {"measurement": "Retraction assay % Retracted cells", "setting": "[3]", "result": 63.7, "unit": "%"},
      {"measurement": "Retraction assay % Retracted cells", "setting": "[3]; listed as PTH", "result": "~64", "unit": "%"}
    ]},
    {"molecule": "hPTH(1-84): full-length human PTH listed in the EIA kit specificity (protein, UniProt P01270 32-115, looked up, Parathyroid hormone) Parathyroid hormone: SVSEIQLMHNLGKHLNSMERVEWLRKKLQDVHNFVALGAPLAPRDAGSQRPRKKEDNVLVESHEKSLGEADKADVNVLTKAKSQ", "values": [
      {"measurement": "Specificity of the assay", "setting": "[1]", "result": 0, "unit": "%"}
    ]}
  ]
}
